ChEMBL document CHEMBL5154818, “Development of oxoisoaporphine derivatives with topoisomerase I inhibition and reversal of multidrug resistance in breast cancer MCF-7/ADR cells” (Eur J Med Chem, 2022)

Legend:
L02 = test: Antiproliferative activity against human L02 cells after 48 hrs by MTT assay; type: functional, cell-based; details: L02, 48 h
A549 = test: Antiproliferative activity against human A549 cells after 48 hrs by MTT assay; type: functional, cell-based; details: A549, 48 h
MCF7 [1] = test: Antiproliferative activity against human MCF7 cells after 48 hrs by MTT assay; type: functional, cell-based; details: MCF7, 48 h
MDA-MB-231 = test: Antiproliferative activity against human MDA-MB-231 cells after 48 hrs by MTT assay; type: functional, cell-based; details: MDA-MB-231, 48 h
HepG2 = test: Antiproliferative activity against human HepG2 cells after 48 hrs by MTT assay; type: functional, cell-based; details: HepG2, 48 h
NCI/ADR-RES [2] = test: Antiproliferative activity against human MCF7/ADR cells after 48 hrs by MTT assay; type: functional, cell-based
MCF7 [3] = test: Antiproliferative activity against human MCF7 cells assessed as growth inhibition at 3 uM after 48 hrs by MTT assay relative to control; type: functional; details: read-out: GI
NCI/ADR-RES [4] = test: Reversal of multidrug resistant activity in human MCF7/ADR cells after 48 hrs by MTT assay; type: functional, cell-based
Calf thymus DNA [5] = test: Binding affinity to calf thymus DNA assessed as hypochromicity at 20 uM measured by UV-vis absorption spectroscopy; type: nucleic-acid assay; details: Bos taurus
Calf thymus DNA [6] = test: Binding affinity to calf thymus DNA assessed as red shift in absorption spectra at 20 uM by UV-vis absorption spectroscopy; type: nucleic-acid assay; details: Bos taurus

Compound	IC50 (L02) [µM]	IC50 (A549) [µM]	IC50 (MCF7 [1]) [µM]	IC50 (MDA-MB-231) [µM]	IC50 (HepG2) [µM]	IC50 (NCI/ADR-RES [2]) [µM]	inhibition of growth at 3 µM (MCF7 [3]) [%]	IC50 (NCI/ADR-RES [4]) [µM]	Activity (Calf thymus DNA [5]) [%]	OD (Calf thymus DNA [6]) [nm]
O=C1c2ccccc2-c2nccc3c(OCCCCn4ccnc4[N+](=O)[O-])ccc1c23	37.3	10.6	9.78	10	10.9	13.5				
O=C1c2ccccc2-c2nccc3c(OCCCn4ccnc4[N+](=O)[O-])ccc1c23	39.6	10.3	10.1	12	13.1	16.7				
Cc1cn(CCCCOc2ccc3c4c(nccc24)-c2ccccc2C3=O)cn1	28.2	9.63	9.42	9.47	11.1	13.6				
O=C1c2ccccc2-c2nccc3c(OCCCn4cnc([N+](=O)[O-])c4)ccc1c23	21.1	9.73	9.03	8.29	10.5	18.4				
N#Cc1ncn(CCCCOc2ccc3c4c(nccc24)-c2ccccc2C3=O)c1C#N	26.8	6.17	10.2	7.34	8.42	10.1				
CC1CCCCN1CCCOc1ccc2c3c(nccc13)-c1ccccc1C2=O (stereo not drawn)	19.5	7.48	8.32	7.94	6.56	16.2	19.7	0.39	28.5	2
CN1CCN(CCOc2ccc3c4c(nccc24)-c2ccccc2C3=O)CC1	22.4	7.26	6.01	9.33	8.19	13.2	9.48	2.9		
Cc1cn(CCCOc2ccc3c4c(nccc24)-c2ccccc2C3=O)cn1	23.8	11.2	9.35	12.1	12	17.1				
O=C1c2ccccc2-c2nccc3c(OCCCCn4cnc(Br)c4)ccc1c23	32.3	8.53	7.95	10.2	7.46	12.1				
O=C1c2ccccc2-c2nccc3c(OCCCCCn4cnc([N+](=O)[O-])c4)ccc1c23	23.8	7.36	10	8.29	8.67	11.5				
COc1ccc(CCN(C)CCCC(C#N)(c2ccc(OC)c(OC)c2)C(C)C)cc1OC (stereo not drawn)								2.83		
O=C1c2ccccc2-c2nccc3cccc1c23	> 50	26.2	24	32.2	28.2	40.9				
O=C1c2ccccc2-c2nccc3c(OCCCCCn4ccnc4[N+](=O)[O-])ccc1c23	30.2	6.09	9.29	7.18	8.13	10.2				
CN1CCN(CCCCOc2ccc3c4c(nccc24)-c2ccccc2C3=O)CC1	> 50	11.1	8.67	11.1	11.9	13.2	6.68	1.8		
CN1CCN(CCCOc2ccc3c4c(nccc24)-c2ccccc2C3=O)CC1	25.9	10	7.46	10.5	9.67	18.3	8.89	11.4		
O=C1c2ccccc2-c2nccc3c(OCCCCn4cnc([N+](=O)[O-])c4)ccc1c23	> 50	12.2	9.34	11.4	14.3	18.3				
O=C1c2ccccc2-c2nccc3c(OCCCn4cnc(Br)c4)ccc1c23	36.8	8.95	6.09	8.61	8.12	11.2				
CC1CCCCN1CCCCOc1ccc2c3c(nccc13)-c1ccccc1C2=O (stereo not drawn)	28.4	8.46	9.95	8.46	10.1	15.2	3.7	1.82	22	1.6
COc1cccc2c1C(=O)c1c(O)c3c(c(O)c1C2=O)C[C@@](O)(C(=O)CO)C[C@@H]3O[C@H]1C[C@H](N)[C@H](O)[C@H](C)O1 [DOXORUBICIN]	0.18									
O=C1c2ccccc2-c2nccc3c(OCCN4CCOCC4)ccc1c23	> 50	6.37	6.01	8.48	8.07	11.2	8.33	10.1		
N#Cc1ncn(CCCCCOc2ccc3c4c(nccc24)-c2ccccc2C3=O)c1C#N	31.1	5.88	7.65	7.39	7.29	10.1				
O=C1c2ccccc2-c2nccc3c(OCCCCN4CCOCC4)ccc1c23	22.9	9.63	8.46	9.43	10.3	19.3	17.4	6.12		
O=C1c2ccccc2-c2nccc3c(OCCCN4CCOCC4)ccc1c23	32.4	9.23	7.58	9.52	10.3	14.6	3.73	1.81		
